Literature values in patent US20090170816A1, “COMBINATION COMPRISING SQUALENE, A PHOSPHOLIPID AND AN OMEGA 3 FATTY ACID FOR THE TREATMENT OF CANCER” (FARMALEIS S.L., priority 2005, published 2009).

Tests used:
[1] = system: chemically-induced lung tumours; settings: compared to animals not receiving squalene
[2] = system: Colon cancer; settings: Table 1, source Carcinogenesis vol. 19 no. 2 pp. 287-290, 1998

For `CC(C)=CCC/C(C)=C/CC/C(C)=C/CC/C=C(\C)CC/C=C(\C)CCC=C(C)C` [Squalene], the incidence of tumours [1] is listed as “lower incidence of tumours”, the multiplicity of tumours [1] is listed as “lower multiplicity” and the volume of tumours [1] is listed as “smaller volume”. The Survival percentage [2] was 50% ^(1).
